The values that follow come from article PMC6471427, “Halogen-Substituted Triazolethioacetamides as a Potent Skeleton for the Development of Metallo-β-Lactamase Inhibitors” (Molecules, 2019).

T2 sequence (C7C422 29-270, looked up, species assumed): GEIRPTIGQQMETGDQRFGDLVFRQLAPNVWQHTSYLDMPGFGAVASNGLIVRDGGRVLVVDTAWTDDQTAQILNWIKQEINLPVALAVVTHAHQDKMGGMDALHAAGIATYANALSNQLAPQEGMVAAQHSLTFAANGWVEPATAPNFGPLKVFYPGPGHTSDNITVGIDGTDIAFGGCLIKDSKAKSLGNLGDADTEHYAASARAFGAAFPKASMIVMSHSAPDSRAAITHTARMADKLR

The target in one assay is T1, ImiS (Aeromonas veronii, UniProt O31272).
T1 construct: made in house
T1 sequence (O31272 28-255): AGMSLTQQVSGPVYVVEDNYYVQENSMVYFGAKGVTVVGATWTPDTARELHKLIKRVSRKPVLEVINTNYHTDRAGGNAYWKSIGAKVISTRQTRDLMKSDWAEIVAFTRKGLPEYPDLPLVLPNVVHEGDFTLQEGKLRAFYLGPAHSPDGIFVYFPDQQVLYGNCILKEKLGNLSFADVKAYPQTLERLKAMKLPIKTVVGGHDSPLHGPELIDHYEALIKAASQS
In words: Inhibition of ImiS-catalysed hydrolysis of imipenem (UV-vis kinetics; IC50, Ki, mode). In kind it is biochemical.
Conditions: not given
The text has this: (§1) To test whether these halogen-substituted triazolethioacetamides were inhibitors of the MβLs, three subclasses MβLs B1(VIM-2 and NDM-1), B2 (ImiS), and B3 (L1) were expressed and purified as previously described. […] On the whole, triazolethioacetamides containing chlorine (1–8) increase the inhibitory potency slightly on average compared to those containing fluorine (9–12), but the presence of trifluoromethoxy (13) is beneficial to increase the inhibitory activity. […] Furthermore, replacement of two hydrogen at the anilino group with chlorine (4 and 5) or fluorine (12) relatively reduces the inhibitory activity, especially compound 12 with two fluorine at 2,5-position of anilino group.
(§2) The inhibition studies were carried out on an Agilent UV 8453 spectrophotometer at 25 °C using cefazolin as substrate of […], NDM-1, and L1 and imipenem as substrate of ImiS. Inhibitors 1–13 were dissolved in DMSO and then diluted with Tris-HCl, pH 7.0. The substrate concentrations were varied between 25 and 400 μM, and inhibitor concentrations were varied between 125 nM and 1 mΜ. The enzyme and inhibitor were pre-incubated for 30 min before starting the kinetic experiments. The IC50 values for all analyzed compounds were calculated based on the kinetic data. The mode of inhibition was determined by generating Lineweaver-Burk plots of the data, and the Ki was determined by replotting the data for slope and intercept versus […].
Turning to `O=C(CSc1nnc(-c2ccccc2O)[nH]1)Nc1ccc(Cl)cc1` [Compound 3], the IC50 (commonly the concentration needed to halve the response being measured) was 0.051 ± 0.006 µM.
Compound `O=C(CSc1nnc(-c2ccccc2O)[nH]1)Nc1ccc(Cl)cc1Cl` [Compound 5] came in with an IC50 of 0.16 ± 0.03 µM.
In the case of `O=C(CSc1nnc(-c2ccccc2O)[nH]1)Nc1ccc(F)cc1` [Compound 11], the IC50 is more than 50 µM.
Take `O=C(CSc1nnc(-c2ccccc2O)[nH]1)Nc1ccc(OC(F)(F)F)cc1` [Compound 13]: the IC50 worked out at 0.23 ± 0.09 µM and the Ki (as a rule, a measure of affinity in units of concentration, obtained from inhibition or displacement) is 0.27 µM.
Compound `O=C(CSc1nnc(-c2ccccc2O)[nH]1)Nc1ccc(Cl)c(Cl)c1` [Compound 4] displayed an IC50 of 0.27 ± 0.02 µM.
In turn, `O=C(CSc1nnc(-c2ccccc2O)[nH]1)Nc1cccc(Cl)c1` [Compound 2] gave an IC50 of 0.045 ± 0.002 µM.
As to `O=C(CSc1nnc(-c2ccccc2O)[nH]1)Nc1cccc(F)c1` [Compound 10], the IC50 amounted to 0.98 ± 0.04 µM.
On the same count and under the same terms, in the case of `O=C(CSc1nnc(-c2ccccc2O)[nH]1)Nc1ccc([N+](=O)[O-])cc1Cl` [Compound 8] it was 0.26 ± 0.03 µM.
The same measure, in the same setting: to `O=C(CSc1nnc(-c2ccccc2O)[nH]1)Nc1cc(Cl)ccc1[N+](=O)[O-]` [Compound 7] belongs 0.2 ± 0.04 µM.
On the same count and under the same terms, in the case of `O=C(CSc1nnc(-c2ccccc2O)[nH]1)Nc1ccc(Cl)cc1[N+](=O)[O-]` [Compound 6] it was 0.78 ± 0.08 µM.
Compound `O=C(CSc1nnc(-c2ccccc2O)[nH]1)Nc1ccccc1F` [Compound 9] came in with an IC50 of 0.072 ± 0.005 µM and a Ki of 0.074 µM.
The compound `O=C(CSc1nnc(-c2ccccc2O)[nH]1)Nc1c(F)cccc1F` [Compound 12] yielded an IC50 of 15.6 ± 3 µM.
Same read-out and setting: to `O=C(CSc1nnc(-c2ccccc2O)[nH]1)Nc1ccccc1Cl` [Compound 1] belongs 0.032 µM.

The assay is the same for the next values; noted with them: Lineweaver-Burk plots, imipenem as substrate.
For `O=C(CSc1nnc(-c2ccccc2O)[nH]1)Nc1ccc(OC(F)(F)F)cc1` [Compound 13], the “Inhibition mode against ImiS” value is on record as “mixed inhibitors”.
In the case of `O=C(CSc1nnc(-c2ccccc2O)[nH]1)Nc1ccccc1F` [Compound 9], the “Inhibition mode against ImiS” value was “mixed inhibitors”.

The assay is the same for the next values; noted with them: imipenem as substrate.
As to `O=C(CSc1nnc(-c2ccccc2O)[nH]1)Nc1ccc(F)cc1` [Compound 11], the “Inhibitory activity against ImiS (in words)” value is reported as “nearly had no inhibitory activity”.

A further assay has as its target T2, NDM-1 (Klebsiella pneumoniae, UniProt C7C422).
T2 construct: made in house
In words: Inhibition of NDM-1 with cefazolin as substrate (UV-vis kinetics). Particulars: 25 °C, Tris-HCl pH 7.0, 30 min pre-incubation, read-out: IC50 against NDM-1. In kind it is biochemical.
Excerpt: as §1, §2
For the compound `O=C(CSc1nnc(-c2ccccc2O)[nH]1)Nc1ccc(Cl)cc1` [Compound 3], the IC50 came to 370 ± 50 nM.
As for `O=C(CSc1nnc(-c2ccccc2O)[nH]1)Nc1ccc(Cl)cc1Cl` [Compound 5], the IC50 was more than 1e+06 nM.
`O=C(CSc1nnc(-c2ccccc2O)[nH]1)Nc1ccc(F)cc1` [Compound 11]: the IC50 is more than 1e+06 nM.
As for `O=C(CSc1nnc(-c2ccccc2O)[nH]1)Nc1ccc(OC(F)(F)F)cc1` [Compound 13], the IC50 is more than 1e+06 nM.
As to `O=C(CSc1nnc(-c2ccccc2O)[nH]1)Nc1ccc(Cl)c(Cl)c1` [Compound 4], the IC50 was more than 1e+06 nM.
Same read-out and setting: to `O=C(CSc1nnc(-c2ccccc2O)[nH]1)Nc1cccc(Cl)c1` [Compound 2] belongs 170 ± 20 nM.
The same measure, in the same setting: in the case of `O=C(CSc1nnc(-c2ccccc2O)[nH]1)Nc1cccc(F)c1` [Compound 10] it was more than 1e+06 nM; in that of `O=C(CSc1nnc(-c2ccccc2O)[nH]1)Nc1ccc([N+](=O)[O-])cc1Cl` [Compound 8], more than 1e+06 nM; in that of `O=C(CSc1nnc(-c2ccccc2O)[nH]1)Nc1cc(Cl)ccc1[N+](=O)[O-]` [Compound 7], more than 1e+06 nM.
As for `O=C(CSc1nnc(-c2ccccc2O)[nH]1)Nc1ccc(Cl)cc1[N+](=O)[O-]` [Compound 6], the IC50 is more than 1e+06 nM.
Consider `O=C(CSc1nnc(-c2ccccc2O)[nH]1)Nc1ccccc1F` [Compound 9], for which the IC50 is more than 1e+06 nM.
On the same count and under the same terms, to `O=C(CSc1nnc(-c2ccccc2O)[nH]1)Nc1c(F)cccc1F` [Compound 12] belongs more than 1e+06 nM; to `O=C(CSc1nnc(-c2ccccc2O)[nH]1)Nc1ccccc1Cl` [Compound 1], 960 ± 70 nM.

The assay is the same for the next values; noted with them: value in nM, read-out: IC50 against NDM-1.
Regarding `O=C(CSc1nnc(-c2ccccc2O)[nH]1)Nc1cccc(Cl)c1` [Compound 2], the IC50 was 170 nM.

Another assay has as its target T3, VIM-2 (Escherichia coli, UniProt Q5U7L7).
T3 construct: made in house
In words: Inhibition of VIM-2 (UV-vis kinetics). In kind it is biochemical. Particulars: 25 °C, Tris-HCl pH 7.0, 30 min pre-incubation; read-out: IC50 against VIM-2.
Excerpt: as §1, §2
Consider `O=C(CSc1nnc(-c2ccccc2O)[nH]1)Nc1ccc(Cl)cc1` [Compound 3], for which the IC50 was more than 1000 µM.
As to `O=C(CSc1nnc(-c2ccccc2O)[nH]1)Nc1ccc(Cl)cc1Cl` [Compound 5], the IC50 is more than 1000 µM.
The same measure, in the same setting: to `O=C(CSc1nnc(-c2ccccc2O)[nH]1)Nc1ccc(F)cc1` [Compound 11] belongs more than 1000 µM; to `O=C(CSc1nnc(-c2ccccc2O)[nH]1)Nc1ccc(OC(F)(F)F)cc1` [Compound 13], 2.8 ± 0.3 µM.
Consider `O=C(CSc1nnc(-c2ccccc2O)[nH]1)Nc1ccc(Cl)c(Cl)c1` [Compound 4], for which the IC50 is more than 1000 µM.
On to `O=C(CSc1nnc(-c2ccccc2O)[nH]1)Nc1cccc(Cl)c1` [Compound 2], for which the IC50 was more than 1000 µM.
Regarding `O=C(CSc1nnc(-c2ccccc2O)[nH]1)Nc1cccc(F)c1` [Compound 10], the IC50 is more than 1000 µM.
On the same count and under the same terms, to `O=C(CSc1nnc(-c2ccccc2O)[nH]1)Nc1ccc([N+](=O)[O-])cc1Cl` [Compound 8] belongs more than 1000 µM; to `O=C(CSc1nnc(-c2ccccc2O)[nH]1)Nc1cc(Cl)ccc1[N+](=O)[O-]` [Compound 7], more than 1000 µM; to `O=C(CSc1nnc(-c2ccccc2O)[nH]1)Nc1ccc(Cl)cc1[N+](=O)[O-]` [Compound 6], more than 1000 µM.
On the same count and under the same terms, to `O=C(CSc1nnc(-c2ccccc2O)[nH]1)Nc1ccccc1F` [Compound 9] belongs more than 1000 µM.
As to `O=C(CSc1nnc(-c2ccccc2O)[nH]1)Nc1c(F)cccc1F` [Compound 12], the IC50 was 38.9 ± 5 µM.
Take `O=C(CSc1nnc(-c2ccccc2O)[nH]1)Nc1ccccc1Cl` [Compound 1]: the IC50 was more than 1000 µM.

A further assay has as its target MβLs.
Assay: not given
Further details: method as in PMID 11564740. Particulars: broad spectrum MβLs inhibitor; read-out: Ki against MβLs; cited from earlier work.
For `O=C(O)C(S)c1ccccc1` (centres unmarked) [rthiomandelic acid, thiomandelic acid], the Ki is 0.09 µM.
For the compound `O=C(O)C(S)c1ccccc1` (single isomer, unassigned) [S-isomer, thiomandelic acid], the Ki was 1.28 µM.
